According to ChEMBL document CHEMBL1140220, “Synthetic and crystallographic studies of a new inhibitor series targeting Bacillus anthracis dihydrofolate reductase” (J Med Chem, 2008):

Target: T1, Dihydrofolate reductase (Homo sapiens, UniProt P00374)
T1 sequence (P00374 whole entry): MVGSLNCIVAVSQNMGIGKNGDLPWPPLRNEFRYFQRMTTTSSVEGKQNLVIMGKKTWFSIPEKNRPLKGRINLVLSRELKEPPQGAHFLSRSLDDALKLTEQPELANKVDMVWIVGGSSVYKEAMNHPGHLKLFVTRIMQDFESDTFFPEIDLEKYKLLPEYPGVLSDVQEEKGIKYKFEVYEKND

| Compound | IC50 [nM] |
| --- | --- |
| CCc1nc(N)nc(N)c1C#CCc1cccc(OC)c1OC | 130 |
| CCc1nc(N)nc(N)c1C#CCc1ccccc1 | 360 |
